{"source": "patent EP1067939B1", "about": "“USE OF STEROIDAL ALKALOID DERIVATIVES AS INHIBITORS OF HEDGEHOG PROTEIN SIGNALING PATHWAYS” (The Johns Hopkins University, priority 1998, dated 1999)", "key": {"endogenous Shh signaling": {"system": "endogenous Shh signaling", "experiment": "Midline neural plate/notochord explant assay of endogenous Shh signaling", "format": "cell-based, chick", "conditions": "midline explants, two days of culture"}, "rat hepatoma cells": {"system": "rat hepatoma cells", "experiment": "Cholesterol Esterification Assay (esterification of plasma membrane cholesterol)", "format": "cell-based", "excerpt": "Table 1. […] Table 1. Effects of synthetic and plant-derived compounds on cholesterol homeostasis. […]"}, "Shh-N": {"system": "Shh-N", "experiment": "Intermediate neural plate explant response to exogenous Shh-N protein", "format": "cell-based, chick"}, "[1]": {"system": "primary human lymphoblasts", "experiment": "Cholesterol Biosynthesis Assay (sterol profiles of cultured cells)", "format": "cell-based", "conditions": "five days"}, "Shh": {"molecular_target": "T1, Shh (Mus musculus, UniProt Q62226)", "T1 construct": "expressed in transfected cells; host or cells: HK293 cells, Ecdysone-Inducible Mammalian Expression System (Invitrogen)", "T1 sequence (Q62226 25-437)": "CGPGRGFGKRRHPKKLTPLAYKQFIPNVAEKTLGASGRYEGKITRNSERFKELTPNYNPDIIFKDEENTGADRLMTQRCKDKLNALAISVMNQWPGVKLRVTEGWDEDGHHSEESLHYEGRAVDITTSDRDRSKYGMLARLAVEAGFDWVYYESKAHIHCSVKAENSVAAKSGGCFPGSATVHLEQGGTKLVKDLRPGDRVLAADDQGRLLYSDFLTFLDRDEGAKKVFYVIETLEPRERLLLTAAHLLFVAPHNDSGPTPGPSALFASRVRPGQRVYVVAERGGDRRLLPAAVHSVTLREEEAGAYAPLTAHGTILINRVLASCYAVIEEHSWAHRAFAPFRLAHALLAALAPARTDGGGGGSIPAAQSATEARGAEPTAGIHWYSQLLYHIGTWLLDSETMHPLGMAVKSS", "experiment": "Shh autoprocessing in stably transfected HK293 cells (immunoblot)", "format": "cell-based", "conditions": "added during the 24-hour induction period; doses up to 5-fold higher than those required to completely inhibit Shh signaling", "excerpt": "To examine potential effects of these compounds on Shh processing we utilized HK293 cells cultured in lipid-depleted serum and carrying a stable integrated construct for expression of Shh under ecdysone-inducible control (47). Shh protein expression in these cells can be induced by addition of muristerone A, an ecdysone analog.\n• 1. M. Hammerschmidt, A. Brook, A. P. McMahon, Trends Genet, 13, 14-21 (1997). • 2. C. Chiang, et al., Nature, 383,407-413 (1996). • 3. Y. Tanabe, T. M. Jessell, Science 274, 1115-1123 (1996). • 4. T. P. Yamaguchi, Curr. Opin. Genet. Dev. 7, 513-518 (1997). • 5. N. Shubin, C. Tabin, S. Carroll, Nature 388, 639-648 (1997). • 6. A. E. Oro, et al., Science 276, 817-821 (1997). • 7. M. M. Cohen, K. K. Sulik, J. Craniofac. Genet. Deve. Biol. 12, 196-244 (1992). • 8. E. Belloni, et al., Nature Genet. 14, 353-356 (1996). • 9. E. Roessler, et al., Nature Genet. 14, 357-360 (1996). • 10. J. A. Porter, et al., Nature 374, 363-366 (1995). • 11. J. A. Porter, K. E. Young, P. A. Beacy, Science 274, 255-259 (1996b). • 12. J. J. Lee, et al., Science 266, 1528-1537 (1994). • 13. J. A. Porter, et al., Cell 86, 21-34 (1996a). • 14. C. Roux, Arch. Franc. Pediatr. 21, 451-464 (1964). • 15. C. Roux, C. R. Soc. Biol. 160, 1353-1357 (1966). • 16. D. B. Dehart, L. Lanoue, G. S. Tinit, K. K. Sulik, Am J. Med. Genet. 68, 328-337 (1997). • 17. M. Kraml, J. F. Bagli, D. Dvornik, Biochem. and Biophysical Res. Com. 15, 455-457 (1964). • 18. J. Avigan, D. Steinberg, H. E. Vroman, M. J. Thompson, E. Mosettig, J. Biol. Chem 235, 3123-3126 (1960). • 19. R. B. Clayton, A. N. Nelson, I. D. Frantz Jr., J. Lipid Res. 4, 166-178 (1963). • 20. J. Aufenanger, J. Pill, K. Stegmeier, F. H. Schmidt, Horm. Metabol. Res. 17, 612-613 (1986). • 21. […] G. Popjak, A. Meenean, E. J. Parish, W. D. Nes, J. Biol. Chem 264,6230-6238 (1989). • 23. H. Yoshikawa, Brain Deve. 13, 115-120 (1991). • 24. R. I. Kelley, et al., Am. J. Of Med. Gen. 66, 478-484 (1996). • 25. G. S. Tint, et al., New England Journal of Medicine 330, 107-113 (1994). • 26. T.E. Willnow, et al., Proc. Natl. Acad. Sci USA 93, 8460-8464 (1996). • 27. S. Stefansson, D. A. Chappell, K. M. Argraves, D. K. Strickland, W. S. Argraves, J. Biol. Chem. 270, 19417-19421 (1995). • 28. W. Binns, L. F. James, J. L. Shupe, G. Everett, Am. J. Vet. Res. 24, 1164-1174 (1963). • 29. R. F. Keeler, W. Binns, Teratology 1, 5-10 (1968). • 30. P. A. Beachy, et al., CSH Symp. Quant. Biol. 62, in press (1997). • 31. E. D. Carstea, et al., Science 277, 228-231 (1997). • 32. S. K. Loftus, et al., Science 277, 232-235 […]. • 33. L. V. Goodrich, L. Milenkovic, K. M. Higgins, M. P. Scott, Science 277, 1109-1113 (1997). • 34. H. Kumagai, K. T. Chun, R. D. Simoni, J. Biol. Chem. 270, 19107-19113 (1995). • 35. G. Gil, J. R. Faust, D. J. Chin, J. L. Goldstien, M. S. Brown, Cell 41, 249-258 (1985). • 36. X. Hua, A. Nohturfft, J. L. Goldstein, M. S. Brown, Cell 87, 415-426 (1996). • 37. M. S. Brown, J. L. Goldstein, Cell 89, 331-340 (1997). • 38. M. M. Bryden, C. Perry, R. F. Keeler, Teratology 8, 18-28 (1973). • 39. M. L. Omnell, F. R. P. Sim, R. F. Keeler, L. C. Harne, K. W. Brown, Teratology 42, 105-119 (1990). • 40. Fertile chick eggs (white leghorn) were placed in a humidified incubator at 37.5° C in a rotating tray for 14 hours. […] The window was taped and the eggs incubated for an additional 4 days. The embryos were dissected in phosphate buffered saline (PBS, pH 7.2)."}, "[2]": {"conditions": "read-out: Percent Inhibition (incorporation of label into cholesteryl ester*) ^3H-Cholesterol"}, "[3]": {"conditions": "read-out: Percent Inhibition (incorporation of label into cholesteryl ester*) ^14C-Oleic Acid"}}, "note": "Where two headings read alike, the source gives them in different places.", "data": [{"molecule": "Clc1ccccc1CNC[C@H]1CC[C@H](CNCc2ccccc2Cl)CC1", "note": "[AY9944, AY 9944]", "values": [{"measurement": "Higher doses that fully inhibit HNF3β and Isl-1 induction", "setting": "endogenous Shh signaling", "value": 4.0, "unit": "µM"}, {"measurement": "Intermediate doses that block induction of HNF3β while permitting induction of Isl-1", "setting": "endogenous Shh signaling", "value": 0.5, "unit": "µM"}, {"measurement": "inhibition at 2.5 µM", "setting": "rat hepatoma cells; [2]", "value": 39, "unit": "%"}, {"measurement": "inhibition at 2.5 µM", "setting": "rat hepatoma cells; [3]", "value": 20, "unit": "%"}, {"measurement": "inhibition at 5 µM", "setting": "rat hepatoma cells; [2]", "value": 56, "unit": "%"}, {"measurement": "inhibition at 5 µM", "setting": "rat hepatoma cells; [3]", "value": 35, "unit": "%"}, {"measurement": "inhibition at 10 µM", "setting": "rat hepatoma cells; [2]", "value": 68, "unit": "%"}, {"measurement": "inhibition at 10 µM", "setting": "rat hepatoma cells; [3]", "value": 51, "unit": "%"}, {"measurement": "concentration that inhibits the repression of Pax7 expression by 2 nM Shh-N", "setting": "Shh-N; 2 nM Shh-N, 20 hours", "value": 0.5, "unit": "µM"}, {"measurement": "doses at which HNF3β and Isl-1 induction are completely blocked", "setting": "Shh-N; 25 nM Shh-N", "value": 2.0, "unit": "µM"}, {"measurement": "intermediate levels at which induction of HNF3β is blocked while induction of Isl-1 is maintained or expanded", "setting": "Shh-N; 25 nM Shh-N", "value": 1.0, "unit": "µM"}, {"measurement": "Percent Sterols: Cholesterol", "setting": "[1]; 0.25 µM", "value": 30, "unit": "%"}, {"measurement": "Percent Sterols: b. 7 Dehydrodesmosterol", "setting": "[1]; 0.25 µM", "value": 3.5, "unit": "%"}, {"measurement": "Percent Sterols: c. Cholesta-7,24-dien-3ß-ol", "setting": "[1]; 0.25 µM", "value": 1.8, "unit": "%"}, {"measurement": "Percent Sterols: e. Cholesta-8(14)-en-3ß-ol", "setting": "[1]; 0.25 µM", "value": 9.7, "unit": "%"}, {"measurement": "Percent Sterols: f. 7 Dehydrocholesterol", "setting": "[1]; 0.25 µM", "value": 50, "unit": "%"}, {"measurement": "Percent Sterols: g. Lathosterol", "setting": "[1]; 0.25 µM", "value": 6.2, "unit": "%"}, {"measurement": "Total Sterols (µg/mg protein)", "setting": "[1]; 0.25 µM", "value": 7.6, "unit": "µg/mg protein"}, {"measurement": "Percent Sterols: 2. C28 Sterols", "setting": "[1]; 0.5 µM", "value": 1.1, "unit": "%"}, {"measurement": "Percent Sterols: 3. C29 Sterols", "setting": "[1]; 0.5 µM", "value": 3.3, "unit": "%"}, {"measurement": "Percent Sterols: Cholesterol", "setting": "[1]; 0.5 µM", "value": 33, "unit": "%"}, {"measurement": "Percent Sterols: b. 7 Dehydrodesmosterol", "setting": "[1]; 0.5 µM", "value": 3.0, "unit": "%"}, {"measurement": "Percent Sterols: c. Cholesta-7,24-dien-3ß-ol", "setting": "[1]; 0.5 µM", "value": 1.9, "unit": "%"}, {"measurement": "Percent Sterols: e. Cholesta-8(14)-en-3ß-ol", "setting": "[1]; 0.5 µM", "value": 14, "unit": "%"}, {"measurement": "Percent Sterols: f. 7 Dehydrocholesterol", "setting": "[1]; 0.5 µM", "value": 36, "unit": "%"}, {"measurement": "Percent Sterols: g. Lathosterol", "setting": "[1]; 0.5 µM", "value": 7.3, "unit": "%"}, {"measurement": "Total Sterols (µg/mg protein)", "setting": "[1]; 0.5 µM", "value": 8.3, "unit": "µg/mg protein"}, {"measurement": "Percent Sterols: 2. C28 Sterols", "setting": "[1]; 1.0 µM", "value": 2.6, "unit": "%"}, {"measurement": "Percent Sterols: 3. C29 Sterols", "setting": "[1]; 1.0 µM", "value": 4.6, "unit": "%"}, {"measurement": "Percent Sterols: Cholesterol", "setting": "[1]; 1.0 µM", "value": 34, "unit": "%"}, {"measurement": "Percent Sterols: b. 7 Dehydrodesmosterol", "setting": "[1]; 1.0 µM", "value": 1.9, "unit": "%"}, {"measurement": "Percent Sterols: c. Cholesta-7,24-dien-3ß-ol", "setting": "[1]; 1.0 µM", "value": 1.6, "unit": "%"}, {"measurement": "Percent Sterols: e. Cholesta-8(14)-en-3ß-ol", "setting": "[1]; 1.0 µM", "value": 20, "unit": "%"}, {"measurement": "Percent Sterols: f. 7 Dehydrocholesterol", "setting": "[1]; 1.0 µM", "value": 16, "unit": "%"}, {"measurement": "Percent Sterols: g. Lathosterol", "setting": "[1]; 1.0 µM", "value": 7.9, "unit": "%"}, {"measurement": "Percent Sterols: h. C27 Sterol 1 (mw 384)", "setting": "[1]; 1.0 µM", "value": 5.3, "unit": "%"}, {"measurement": "Percent Sterols: i. C27 Sterol 2 (mw 382)", "setting": "[1]; 1.0 µM", "value": 6.0, "unit": "%"}, {"measurement": "Total Sterols (µg/mg protein)", "setting": "[1]; 1.0 µM", "value": 8.3, "unit": "µg/mg protein"}, {"measurement": "Shh-Np production and accumulation of unprocessed precursor", "setting": "Shh", "value": "did not diminish Shh-Np production nor induce accumulation of unprocessed precursor"}]}]}
